The term MIC denotes the least concentration at which growth counts as inhibited. Lower therefore signals greater potency.

Consider 13 molecules from DBAASP.

Among the test systems are Bacillus cereus; Escherichia coli; Staphylococcus aureus.
Test in all cases: ≥ marks a high value that may be exact or a test limit, other limits are often not marked, values filed in µg/mL are converted to µM
The subject of assay [1] is Bacillus subtilis ATCC 6633.
Assay [2] deals with Escherichia coli ATCC 25922.
The subject of assay [3] is Klebsiella pneumoniae ATCC 700603.
Assay [4] relates to Pseudomonas aeruginosa ATCC 27853.
The test system of assay [5] is Staphylococcus aureus ATCC 25923.
Assay [6] relates to Staphylococcus epidermidis ATCC 12228.

SMILES strings stand for the structures. ≈ marks a conversion by molar mass, not a printed value.

As to `CC(C)C[C@H](NC(=O)[C@@H](N)Cc1ccccc1)C(=O)NCC(=O)N[C@H](C(=O)N[C@H](C(=O)N[C@@H](Cc1ccccc1)C(=O)N[C@@H](CCCCN)C(=O)N[C@@H](CCCCN)C(=O)N[C@@H](C)C(=O)N[C@@H](CO)C(=O)N[C@@H](CCCCN)C(=O)N[C@H](C(=O)N[C@@H](Cc1ccccc1)C(=O)NCC(=O)N[C@@H](C)C(=O)N[C@H](C(=O)N[C@@H](Cc1ccccc1)C(=O)NCC(=O)N[C@@H](CCCCN)C(=O)N[C@H](C(=O)O)C(C)C)C(C)C)C(C)C)C(C)C)C(C)C` [FLGVVFKKASKVFGAVFGKV], the MIC is no less than 60.1 µM against Bacillus cereus, 30.1 µM (≈ 64 µg/mL) with Escherichia coli and greater than 120 µM against Staphylococcus aureus.

Take `CC(C)C[C@H](NC(=O)[C@H](CCCCN)NC(=O)[C@H](Cc1ccccc1)NC(=O)[C@@H](NC(=O)[C@H](CCCCN)NC(=O)CNC(=O)[C@H](CC(C)C)NC(=O)[C@@H](N)Cc1ccccc1)C(C)C)C(=O)N[C@@H](C)C(=O)N[C@@H](CO)C(=O)N[C@@H](CCCCN)C(=O)N[C@H](C(=O)N[C@@H](Cc1ccccc1)C(=O)N1CCC[C@H]1C(=O)N[C@@H](C)C(=O)N[C@H](C(=O)N[C@@H](Cc1ccccc1)C(=O)NCC(=O)N[C@@H](CCCCN)C(=O)N[C@H](C(=O)O)C(C)C)C(C)C)C(C)C` [FLGKVFKLASKVFPAVFGKV]: the MIC against Bacillus cereus was 7.33 µM (≈ 16 µg/mL); in the assay on Escherichia coli it was 7.33 µM (≈ 16 µg/mL); against Staphylococcus aureus it was 14.7 µM (≈ 32 µg/mL).

In the case of `CC(=O)N[C@@H](CCCCN)C(=O)N[C@@H](Cc1ccccc1)C(=O)N[C@@H](CC(C)C)C(=O)N[C@@H](CCCCN)C(=O)N[C@@H](CC(C)C)C(=O)N[C@@H](CCCCN)C(=O)N[C@@H](Cc1c[nH]c2ccccc12)C(=O)N[C@@H](CC(C)C)C(=O)N[C@@H](CCCCN)C(=O)N[C@@H](CO)C(=O)N[C@@H](Cc1c[nH]c2ccccc12)C(=O)N[C@@H](CCCCN)C(=O)N[C@@H](CC(N)=O)C(=O)N[C@@H](Cc1ccccc1)C(=O)N[C@@H](CCCCN)C(N)=O` [KFLKLKWLKSWKNFK], the MIC in assay [1] came to 6.4 µM (≈ 13 µg/mL); in assay [2] it was 12.5 µM (≈ 25.4 µg/mL); in assay [3] it was 25 µM (≈ 50.9 µg/mL); in assay [4] it was 12.5 µM (≈ 25.4 µg/mL); in [5] it was 50 µM (≈ 102 µg/mL); in assay [6] it was 12.5 µM (≈ 25.4 µg/mL).

For `CC[C@H](C)[C@H](NC(=O)[C@H](CCCCN)NC(=O)[C@@H](NC(=O)[C@H](C)NC(=O)[C@@H](NC(=O)[C@H](CC(C)C)NC(=O)[C@H](CCCCN)NC(=O)[C@H](C)NC(=O)[C@@H](NC(=O)[C@@H](NC(=O)CNC(=O)[C@@H](NC(=O)[C@H](CC(C)C)NC(=O)[C@@H](N)[C@@H](C)O)C(C)C)C(C)C)C(C)C)C(C)C)[C@@H](C)O)C(=O)NCC(=O)N[C@@H](CO)C(=O)N[C@@H](CO)C(=O)N1CCC[C@H]1C(=O)N[C@@H](CCCN=C(N)N)C(=O)N[C@@H](C)C(=O)O` [TLVGVVAKLVATKIGSSPRA], the MIC in the assay with Bacillus cereus is no less than 130 µM; with Escherichia coli, greater than 130 µM.

Turning to `CC[C@H](C)[C@H](NC(=O)[C@H](CCCCN)NC(=O)[C@H](Cc1ccccc1)NC(=O)[C@@H](NC(=O)[C@@H](NC(=O)[C@@H]1CCCN1C(=O)[C@@H](N)CC(C)C)C(C)C)C(C)C)C(=O)N[C@@H](C)C(=O)N[C@@H](CO)C(=O)N[C@@H](CCCCN)C(=O)N[C@H](C(=O)N[C@H](C(=O)N1CCC[C@H]1C(=O)N[C@@H](CO)C(=O)N[C@H](C(=O)N[C@H](C(=O)N[C@@H](CO)C(=O)N[C@@H](CCCCN)C(=O)N[C@H](C(=O)N[C@H](C(=O)O)[C@@H](C)O)[C@@H](C)CC)[C@@H](C)CC)C(C)C)C(C)C)C(C)C` [LPVVFKIASKVVPSVISKIT], the MIC was no less than 120 µM with Bacillus cereus and greater than 120 µM against Escherichia coli.

With `CC(C)C[C@H](NC(=O)[C@@H](N)Cc1ccccc1)C(=O)NCC(=O)N[C@@H](CCCCN)C(=O)N[C@H](C(=O)N[C@H](C(=O)N[C@@H](CCCCN)C(=O)NCC(=O)N[C@@H](C)C(=O)N[C@@H](CO)C(=O)N[C@@H](CCCCN)C(=O)N[C@H](C(=O)N[C@@H](Cc1ccccc1)C(=O)N1CCC[C@H]1C(=O)N[C@@H](C)C(=O)N[C@H](C(=O)N[C@@H](Cc1ccccc1)C(=O)NCC(=O)N[C@@H](CCCCN)C(=O)N[C@H](C(=O)O)C(C)C)C(C)C)C(C)C)C(C)C)C(C)C` [FLGKVVKGASKVFPAVFGKV], the MIC is no less than 123 µM against Bacillus cereus, greater than 123 µM against Escherichia coli and greater than 123 µM with Staphylococcus aureus.

`CC(C)C[C@H](NC(=O)[C@@H](N)Cc1ccccc1)C(=O)NCC(=O)N[C@H](C(=O)N[C@H](C(=O)N[C@@H](Cc1ccccc1)C(=O)N[C@@H](CCCCN)C(=O)N[C@@H](CO)C(=O)N[C@@H](C)C(=O)N[C@@H](CO)C(=O)N[C@@H](CCCCN)C(=O)N[C@H](C(=O)N[C@@H](Cc1ccccc1)C(=O)N1CCC[C@H]1C(=O)N[C@@H](C)C(=O)N[C@H](C(=O)N[C@@H](Cc1ccccc1)C(=O)NCC(=O)N[C@@H](CCCCN)C(=O)N[C@H](C(=O)O)C(C)C)C(C)C)C(C)C)C(C)C)C(C)C` [FLGVVFKSASKVFPAVFGKV]: the MIC in the assay with Bacillus cereus is no less than 120 µM; against Escherichia coli, greater than 120 µM; with Staphylococcus aureus, greater than 120 µM.

As for `CC(C)C[C@H](NC(=O)[C@H](CCCCN)NC(=O)[C@H](Cc1ccccc1)NC(=O)[C@@H](NC(=O)[C@H](C)NC(=O)[C@@H]1CCCN1C(=O)[C@@H](N)CC(C)C)C(C)C)C(=O)N[C@@H](C)C(=O)N[C@@H](CO)C(=O)N[C@@H](CCCCN)C(=O)N[C@H](C(=O)N[C@@H](Cc1ccccc1)C(=O)N1CCC[C@H]1C(=O)N[C@@H](C)C(=O)N[C@H](C(=O)N[C@@H](Cc1ccc(O)cc1)C(=O)N[C@@H](CS)C(=O)N[C@@H](CCCCN)C(=O)N[C@@H](C)C(=O)N[C@@H](CO)C(=O)O)C(C)C)C(C)C` [LPAVFKLASKVFPAVYCKAS], the MIC against Bacillus cereus is no less than 120 µM; against Escherichia coli, 59.8 µM (≈ 128 µg/mL).

With `CC(C)C[C@H](NC(=O)[C@H](CCCCN)NC(=O)[C@H](Cc1ccccc1)NC(=O)[C@@H](NC(=O)[C@H](CO)NC(=O)CNC(=O)[C@H](CC(C)C)NC(=O)[C@@H](N)Cc1ccccc1)C(C)C)C(=O)N[C@@H](C)C(=O)N[C@@H](CO)C(=O)N[C@@H](CCCCN)C(=O)N[C@H](C(=O)N[C@@H](Cc1ccccc1)C(=O)N1CCC[C@H]1C(=O)N[C@@H](C)C(=O)N[C@H](C(=O)N[C@@H](Cc1ccccc1)C(=O)NCC(=O)N[C@@H](CCCCN)C(=O)N[C@H](C(=O)O)C(C)C)C(C)C)C(C)C` [FLGSVFKLASKVFPAVFGKV], the MIC against Bacillus cereus was determined as 14.9 µM (≈ 32 µg/mL); in the assay on Escherichia coli it was 29.9 µM (≈ 64 µg/mL); against Staphylococcus aureus it was 29.9 µM (≈ 64 µg/mL).

As to `CC(C)C[C@H](NC(=O)[C@H](CCCCN)NC(=O)[C@H](Cc1ccccc1)NC(=O)[C@@H](NC(=O)[C@@H](NC(=O)CNC(=O)[C@H](CC(C)C)NC(=O)[C@@H](N)Cc1ccccc1)C(C)C)C(C)C)C(=O)N[C@@H](C)C(=O)N[C@@H](CO)C(=O)N[C@@H](CCCCN)C(=O)N[C@H](C(=O)N[C@@H](Cc1ccccc1)C(=O)NCC(=O)N[C@@H](CCCCN)C(=O)N[C@H](C(=O)N[C@@H](Cc1ccccc1)C(=O)NCC(=O)N[C@@H](CCCCN)C(=O)N[C@H](C(=O)O)C(C)C)C(C)C)C(C)C` [FLGVVFKLASKVFGKVFGKV], the MIC in the assay on Bacillus cereus stood at 3.69 µM (≈ 8 µg/mL); in the assay on Escherichia coli, 29.5 µM (≈ 64 µg/mL); against Staphylococcus aureus, 3.69 µM (≈ 8 µg/mL).

With `CC(C)C[C@H](NC(=O)[C@@H](N)Cc1ccccc1)C(=O)NCC(=O)N[C@@H](CCCCN)C(=O)N[C@H](C(=O)N[C@@H](Cc1ccccc1)C(=O)N[C@@H](CCCCN)C(=O)N[C@@H](CCCCN)C(=O)N[C@@H](C)C(=O)N[C@@H](CO)C(=O)N[C@@H](CCCCN)C(=O)N[C@H](C(=O)N[C@H](C(=O)N1CCC[C@H]1C(=O)N[C@@H](C)C(=O)N[C@H](C(=O)N[C@@H](Cc1ccccc1)C(=O)NCC(=O)N[C@@H](CCCCN)C(=O)N[C@H](C(=O)O)C(C)C)C(C)C)C(C)C)C(C)C)C(C)C` [FLGKVFKKASKVVPAVFGKV], the MIC is no less than 119 µM with Bacillus cereus, 119 µM (≈ 256 µg/mL) with Escherichia coli and greater than 119 µM with Staphylococcus aureus.

With `CC[C@H](C)[C@H](NC(=O)[C@H](CO)NC(=O)[C@H](CC(C)C)NC(=O)CNC(=O)[C@@H](NC(=O)[C@@H](NC(=O)[C@H](CCCCN)NC(=O)[C@@H]1CCCN1)C(C)C)C(C)C)C(=O)N[C@H](C(=O)N[C@H](C(=O)N[C@H](C(=O)N[C@@H](CCCCN)C(=O)N[C@@H](C)C(=O)N[C@@H](CCCCN)C(=O)N[C@H](C(=O)N[C@@H](CO)C(=O)N[C@@H](CO)C(=O)N[C@@H](C)C(=O)N[C@@H](CC(C)C)C(=O)NCC(=O)O)C(C)C)C(C)C)C(C)C)C(C)C` [PKVVGLSIVVVKAKVSSALG], the MIC was no less than 131 µM in the assay on Bacillus cereus and greater than 131 µM against Escherichia coli.

`CC(C)C[C@H](NC(=O)[C@H](CCCN=C(N)N)NC(=O)[C@H](C)NC(=O)[C@@H](NC(=O)[C@H](CCCN=C(N)N)NC(=O)[C@H](CCCN=C(N)N)NC(=O)[C@H](CC(C)C)NC(=O)[C@@H](N)CC(C)C)C(C)C)C(=O)N[C@@H](CC(C)C)C(=O)N[C@@H](CCCCN)C(=O)N[C@@H](CCCN=C(N)N)C(=O)N[C@@H](Cc1ccccc1)C(=O)N[C@@H](C)C(=O)N[C@@H](CCCCN)C(=O)O` [LLRRVARLLKRFAK]: the MIC in assay [1] turned out to be 4.6 µM (≈ 8 µg/mL); in assay [2] it was 1.15 µM (≈ 2 µg/mL); in assay [4], 1.15 µM (≈ 2 µg/mL); in [5] it was 4.6 µM (≈ 8 µg/mL).
